Test results reported in PubChem BioAssay (NCI).
Values joined by “and” are separate entries in the source; they are usually repeats but may differ in a detail not shown here. Equal entries are not always repeated.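 Results reflect a 48-hour exposure of cells in 96-well plates to compound at five concentrations. Abbreviation: GI50, concentration required for 50% inhibition of growth. The concentration for full growth arrest is given as TGI.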

Columns and labels:
Test in all cases: NCI anticancer screen, dose series, 48 h; in the data active = GI50 below about 0.43 µM; inactive = the rest
OVCAR-3 ovarian = tested on: OVCAR-3 ovarian
NCI-H460 lung = tested on: NCI-H460 lung
RXF 393 renal = tested on: RXF 393 renal
SF-295 CNS = tested on: SF-295 CNS
BT-549 breast = tested on: BT-549 breast
ACHN renal = tested on: ACHN renal
MOLT-4 leukemia = tested on: MOLT-4 leukemia
CCRF-CEM leukemia = tested on: CCRF-CEM leukemia
HCC-2998 colon = tested on: HCC-2998 colon
A549 NSCLC = tested on: A549 NSCLC
NCI/ADR-RES ovarian = tested on: NCI/ADR-RES ovarian
RPMI-8226 leukemia = tested on: RPMI-8226 leukemia
T-47D breast = tested on: T-47D breast
MCF7 breast = tested on: MCF7 breast
SK-MEL-5 melanoma = tested on: SK-MEL-5 melanoma
786-0 renal = tested on: 786-0 renal
OVCAR-8 ovarian = tested on: OVCAR-8 ovarian
KM12 colon = tested on: KM12 colon
HCT-116 colon = tested on: HCT-116 colon
HOP-62 NSCLC = tested on: HOP-62 NSCLC
SNB-75 CNS = tested on: SNB-75 CNS
MDA-MB-231 breast = tested on: MDA-MB-231 breast
SNB-19 CNS = tested on: SNB-19 CNS
HOP-92 NSCLC = tested on: HOP-92 NSCLC
K-562 leukemia = tested on: K-562 leukemia
SF-268 CNS = tested on: SF-268 CNS
HL-60(TB) leukemia = tested on: HL-60(TB) leukemia
SW-620 colon = tested on: SW-620 colon
SR leukemia = tested on: SR leukemia
MALME-3M melanoma = tested on: MALME-3M melanoma
NCI-H23 lung = tested on: NCI-H23 lung
PC-3 prostate = tested on: PC-3 prostate
SK-MEL-2 melanoma = tested on: SK-MEL-2 melanoma
SK-MEL-28 melanoma = tested on: SK-MEL-28 melanoma
IGROV1 ovarian = tested on: IGROV1 ovarian
UACC-62 melanoma = tested on: UACC-62 melanoma
HT29 colon = tested on: HT29 colon
OVCAR-4 ovarian = tested on: OVCAR-4 ovarian
LOX IMVI melanoma = tested on: LOX IMVI melanoma
OVCAR-5 ovarian = tested on: OVCAR-5 ovarian
DU-145 prostate = tested on: DU-145 prostate
TK-10 renal = tested on: TK-10 renal
NCI-H226 lung = tested on: NCI-H226 lung
EKVX NSCLC = tested on: EKVX NSCLC
SK-OV-3 ovarian = tested on: SK-OV-3 ovarian
HS 578T breast = tested on: HS 578T breast
M14 melanoma = tested on: M14 melanoma
MDA-MB-435 = tested on: MDA-MB-435
UO-31 renal = tested on: UO-31 renal
UACC-257 melanoma = tested on: UACC-257 melanoma
NCI-H522 lung = tested on: NCI-H522 lung
SF-539 CNS = tested on: SF-539 CNS
U251 CNS = tested on: U251 CNS
COLO 205 colon = tested on: COLO 205 colon
CAKI-1 renal = tested on: CAKI-1 renal
HCT-15 colon = tested on: HCT-15 colon
A498 renal = tested on: A498 renal
MDA-N = tested on: MDA-N
SN12C renal = tested on: SN12C renal

Cn1cnc2c(NCc3ccccc3)nc(NCCO)nc21
441 µM: TGI (NCI-H460 lung)
> 90.2 µM and 375 µM: TGI (HOP-92 NSCLC)
319 µM: TGI (NCI/ADR-RES ovarian)
339 µM: TGI (OVCAR-4 ovarian)
283 µM: TGI (PC-3 prostate)
178 µM: TGI (SK-MEL-2 melanoma)
241 µM: TGI (MALME-3M melanoma)
> 87 µM and 237 µM: TGI (SR leukemia)
344 µM: TGI (KM12 colon)
> 90 µM and 92.7 µM: TGI (SF-539 CNS)
479 µM: TGI (MDA-MB-231 breast)
> 468 µM: TGI (ACHN renal)
322 µM: TGI (NCI-H522 lung)
> 435 µM: TGI (786-0 renal)
> 456 µM: TGI (TK-10 renal)
90.4 µM and > 268 µM: TGI (MCF7 breast)
83.3 µM and 311 µM: TGI (A498 renal)
> 86 µM and 183 µM: TGI (HOP-62 NSCLC)
> 454 µM: TGI (BT-549 breast)
> 500 µM: TGI (SF-295 CNS) | TGI (DU-145 prostate) | TGI (U251 CNS) | TGI (HCT-15 colon)
69.7 µM and 282 µM: TGI (COLO 205 colon)
336 µM: TGI (HT29 colon)
> 73 µM and 220 µM: TGI (HL-60(TB) leukemia)
> 460 µM: TGI (SK-OV-3 ovarian)
> 217 µM: TGI (OVCAR-5 ovarian)
489 µM: TGI (K-562 leukemia)
> 474 µM: TGI (UACC-257 melanoma)
40.4 µM and 187 µM: TGI (RXF 393 renal)
> 339 µM: TGI (RPMI-8226 leukemia)
> 89.9 µM and 302 µM: TGI (UACC-62 melanoma)
81.4 µM and > 395 µM: TGI (LOX IMVI melanoma)
356 µM: TGI (MOLT-4 leukemia) | TGI (HCC-2998 colon)
> 96.2 µM and 420 µM: TGI (UO-31 renal)
> 406 µM: TGI (OVCAR-3 ovarian)
98.2 µM and 353 µM: TGI (CCRF-CEM leukemia)
> 90.6 µM and 265 µM: TGI (CAKI-1 renal)
inactive: GI50 (OVCAR-3 ovarian) 33 µM and 115 µM | GI50 (NCI-H460 lung) 77.8 µM | GI50 (RXF 393 renal) 17.7 µM | GI50 (SF-295 CNS) 122 µM | GI50 (BT-549 breast) 147 µM | GI50 (ACHN renal) 92.7 µM | GI50 (MOLT-4 leukemia) 103 µM | GI50 (CCRF-CEM leukemia) 143 µM | GI50 (HCC-2998 colon) 115 µM | GI50 (A549 NSCLC) 105 µM | GI50 (RPMI-8226 leukemia) 81.2 µM | GI50 (T-47D breast) 206 µM | GI50 (MCF7 breast) 62.9 µM | GI50 (SK-MEL-5 melanoma) 96.4 µM | GI50 (786-0 renal) 105 µM | GI50 (OVCAR-8 ovarian) 90.5 µM | GI50 (KM12 colon) 62.1 µM | GI50 (HCT-116 colon) 49.3 µM | GI50 (SNB-75 CNS) 64.7 µM | GI50 (MDA-MB-231 breast) 116 µM | GI50 (SNB-19 CNS) 98.9 µM | GI50 (HOP-92 NSCLC) 138 µM | GI50 (SF-268 CNS) 86.2 µM | GI50 (HL-60(TB) leukemia) 73.2 µM | GI50 (SW-620 colon) 158 µM | GI50 (SR leukemia) 69.1 µM | GI50 (NCI-H23 lung) 110 µM | GI50 (PC-3 prostate) 41.4 µM | GI50 (SK-MEL-2 melanoma) 44.4 µM | GI50 (SK-MEL-28 melanoma) 88.7 µM | GI50 (IGROV1 ovarian) 67.9 µM | GI50 (UACC-62 melanoma) 67.5 µM | GI50 (HT29 colon) 83.6 µM | GI50 (OVCAR-4 ovarian) 110 µM | GI50 (LOX IMVI melanoma) 48.4 µM | GI50 (DU-145 prostate) 125 µM | GI50 (TK-10 renal) 135 µM | GI50 (NCI-H226 lung) 17.5 µM | GI50 (EKVX NSCLC) 57 µM | GI50 (SK-OV-3 ovarian) 241 µM | GI50 (HS 578T breast) 162 µM | GI50 (M14 melanoma) 51 µM | GI50 (MDA-MB-435) 114 µM | GI50 (UO-31 renal) 93.6 µM | GI50 (UACC-257 melanoma) 155 µM | GI50 (NCI-H522 lung) 90.6 µM | GI50 (SF-539 CNS) 36.7 µM | GI50 (U251 CNS) 133 µM | GI50 (COLO 205 colon) 82.2 µM | GI50 (CAKI-1 renal) 63.6 µM | GI50 (HCT-15 colon) 129 µM | GI50 (A498 renal) 28.8 µM
> 408 µM: TGI (T-47D breast)
465 µM: TGI (HS 578T breast)
70.8 µM and 150 µM: TGI (SNB-75 CNS)
280 µM: TGI (SK-MEL-28 melanoma)
313 µM: TGI (MDA-MB-435)
334 µM: TGI (IGROV1 ovarian)
> 426 µM: TGI (SW-620 colon)
120 µM: TGI (M14 melanoma)
220 µM: TGI (SK-MEL-5 melanoma)
170 µM: TGI (EKVX NSCLC)
> 93.2 µM and 183 µM: TGI (NCI-H226 lung)
> 96.5 µM and 321 µM: TGI (HCT-116 colon)
382 µM: TGI (SNB-19 CNS) | TGI (NCI-H23 lung)
> 91.2 µM and 223 µM: TGI (SF-268 CNS)
> 458 µM: TGI (A549 NSCLC)
391 µM: TGI (OVCAR-8 ovarian)

O=C(O)CCSc1nnc(COc2ccc(Cl)cc2)n1-c1ccccc1
> 100 µM: TGI (OVCAR-3 ovarian) | TGI (NCI-H460 lung) | TGI (RXF 393 renal) | TGI (SF-295 CNS) | TGI (ACHN renal) | TGI (MOLT-4 leukemia) | TGI (CCRF-CEM leukemia) | TGI (HCC-2998 colon) | TGI (A549 NSCLC) | TGI (NCI/ADR-RES ovarian) | TGI (T-47D breast) | TGI (MCF7 breast) | TGI (786-0 renal) | TGI (OVCAR-8 ovarian) | TGI (KM12 colon) | TGI (HCT-116 colon) | TGI (HOP-62 NSCLC) | TGI (SNB-75 CNS) | TGI (MDA-MB-231 breast) | TGI (SNB-19 CNS) | TGI (HOP-92 NSCLC) | TGI (K-562 leukemia) | TGI (MDA-N) | TGI (SF-268 CNS) | TGI (HL-60(TB) leukemia) | TGI (SW-620 colon) | TGI (MALME-3M melanoma) | TGI (NCI-H23 lung) | TGI (PC-3 prostate) | TGI (SK-MEL-2 melanoma) | TGI (SK-MEL-28 melanoma) | TGI (IGROV1 ovarian) | TGI (UACC-62 melanoma) | TGI (HT29 colon) | TGI (SN12C renal) | TGI (OVCAR-4 ovarian) | TGI (LOX IMVI melanoma) | TGI (OVCAR-5 ovarian) | TGI (DU-145 prostate) | TGI (TK-10 renal) | TGI (NCI-H226 lung) | TGI (EKVX NSCLC) | TGI (SK-OV-3 ovarian) | TGI (M14 melanoma) | TGI (MDA-MB-435) | TGI (UO-31 renal) | TGI (UACC-257 melanoma) | TGI (NCI-H522 lung) | TGI (SF-539 CNS) | TGI (U251 CNS) | TGI (COLO 205 colon) | TGI (CAKI-1 renal) | TGI (HCT-15 colon) | TGI (A498 renal)
